Here are results for two compounds from patent US20110119780A1, “SCREENING FOR NON-GENOTOXIC CARCINOGENS” (priority 2008, published 2011).

A short description of series [1]: Pentobarbitone sleeping test. In kind it is in vivo, mice. Conditions: male, single intraperitoneal dose 25 mg/kg. The method, then:
In this experiment, the activity of these transcription factors in combination was determined by measuring the barbiturate induced sleeping time. Sleeping time has been known for many years to be directly proportional to the hepatic cytochrome P450 activity and this activity can be at least in part ascribed to the P450 levels in the liver determined by CAR and PXR function.
Mice were given a single intraperitoneal dose of Narcoren (sodium pentobarbitone; purchased via a Veterinary Consultant; distributed by Merial GmbH, Germany) at 25 mg/kg of body weight. The time taken for the mice to lose, and subsequently to regain, their righting reflex was measured.

For series [2], the system named is hepatocellular hypertrophy. In words: H&E staining of liver sections, Chlordane-treated mice. The series is classed as in vivo. The text has this:
A 20× objective lens was used to capture the images.

Take `CCCC(C)C1(CC)C(=O)NC(=O)NC1=O` (stereo not shown) [pentobarbitone, sodium pentobarbitone]: the Sleeping time in series [1] (PXR/CAR hum (double humanised) mouse) is reported as 34 min; in series [1] (Wt mouse) it was 21 min.

With `ClC1=C(Cl)C2(Cl)C3C(Cl)C(Cl)CC3C1(Cl)C2(Cl)Cl` (stereo not shown) [Chlordane], the “hypertrophy on H&E staining” value in series [2] (PXRKO/CARKO mice) was “not”. Further, the “liver finding on H&E staining” value in series [2] (WT and hPXR_old/hCAR mice) is on record as “hypertrophy”.
